How the values were obtained:
[1] = tested on: microbes; settings: as low as; cited from earlier work
[2] = tested on: biofilm; assay: Removal of biofilm from contaminated dental equipment with chlorine dioxide solution
Text: Apparatus 1310 can also be incorporated into a pouch like that depicted in FIG. 15 to generate a desired concentration of gas, e.g., chlorine dioxide, in water. This embodiment is particularly useful in wet applications, e.g., for use in removing biofilm from dental equipment. One such apparatus was constructed and used to generate an aqueous solution containing 50 parts per million chlorine dioxide. It was then emptied into a dental equipment reservoir and allowed to run through the equipment, which was contaminated with biolfilm, and stand overnight. In the morning, the dental equipment was flushed with water. This procedure was repeated the following two nights. The equipment was then tested for the presence of biofilm and the biofilm was diminished. Thereafter, rinsing the equipment once daily with a 5 parts per million solution was adequate to retard the growth of biofilm in the equipment.

[O][Cl+][O-] [chlorine dioxide]
concentration at which effective as disinfectant [1]: 0.2 mg/L | presence of biofilm in dental equipment after treatment ([2]; 50 parts per million solution, run through and left overnight, three nights): diminished | concentration of solution adequate to retard the growth of biofilm ([2]; rinsing the equipment once daily, after initial treatment): 5 parts per million

Source: US20040022676A1, “Apparatus and method for controlled delivery of a gas” (Selective Micro Technologies, LLC, priority 2000, published 2004)
